Measurements published in US7446117B2, “Cox-2 inhibiting pyridine derivatives” (Glaxo Group Limited, priority 2002, dated 2008).

What follows are compounds tested against T1, microsomal h-COX2 (Homo sapiens, UniProt P35354) (assay: Microsomal assay: inhibitory activity against microsomal h-COX2). Conditions: microsomal preparation from baculovirus infected SF9 cells; 1 hour incubation with compound; 0.1 μM arachidonic acid, 10 minutes; PGE2 by EIA; read-out: IC50 values for inhibition of COX-2.
T1 construct: made in house; host or cells: baculovirus infected SF9 cells (microsomal preparation)
T1 sequence (P35354 18-604): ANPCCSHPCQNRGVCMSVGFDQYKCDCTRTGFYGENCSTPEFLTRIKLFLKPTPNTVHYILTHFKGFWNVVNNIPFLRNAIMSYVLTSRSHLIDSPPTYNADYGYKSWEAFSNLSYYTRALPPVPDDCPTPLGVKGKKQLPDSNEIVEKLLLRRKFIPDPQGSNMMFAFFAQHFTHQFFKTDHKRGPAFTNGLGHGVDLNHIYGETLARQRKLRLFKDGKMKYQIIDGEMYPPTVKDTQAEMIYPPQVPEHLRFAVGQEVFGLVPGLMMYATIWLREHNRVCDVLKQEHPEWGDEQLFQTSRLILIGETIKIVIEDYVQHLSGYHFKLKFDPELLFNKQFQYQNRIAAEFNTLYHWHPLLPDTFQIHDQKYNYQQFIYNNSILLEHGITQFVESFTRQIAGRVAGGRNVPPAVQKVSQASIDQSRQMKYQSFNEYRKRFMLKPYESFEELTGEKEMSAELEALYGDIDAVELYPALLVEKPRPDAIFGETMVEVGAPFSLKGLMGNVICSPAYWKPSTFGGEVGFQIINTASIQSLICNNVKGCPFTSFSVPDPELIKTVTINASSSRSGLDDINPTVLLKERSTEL
Format: biochemical
Method: Biological Data Microsomal Assay
Inhibitory activity against microsomal h-COX2 was assessed against a microsomal preparation from baculovirus infected SF9 cells. An aliquot of microsomal preparation was thawed slowly on ice and a 1/40,000 dilution prepared from it into the assay buffer (sterile water, degassed with argon containing 100 mM HEPES (pH 7.4), 10 mM EDTA (pH7.4), 1 mM phenol, 1 mM reduced glutathione, 20 mg/ml gelatin and 0.001 mM Hematin). Once diluted the enzyme solution was then sonicated for 5 seconds (Branson sonicator, setting 4, 1 cm tip) to ensure a homogeneous suspension. 155 μl enzyme solution was then added to each well of a 96-well microtitre plate containing either 5 μl test compound (40× required test concentration) or 5 μl DMSO for controls. Plates were then mixed and incubated at room temperature for 1 hour. Following the incubation period, 40 μl of 0.5 μM arachidonic acid was added to each well to give a final concentration of 0.1 μM. Plates were then mixed and incubated for exactly 10 minutes (room temperature) prior to addition of 25 μl 1M HCl (hydrochloric acid) to each well to stop the reaction. 25 μl of 1M NaOH (sodium hydroxide) was then added to each well to neutralise the solution prior to determination of PGE2 levels by enzyme immunoassay (EIA).

IC50 | SMILES
≤ 500 nM | Cn1ncnc1CNc1cc(C(F)(F)F)cc(-c2ccc(S(C)(=O)=O)cc2)n1 [Example 173]
≤ 500 nM | CS(=O)(=O)c1ccc(-c2cc(C(F)(F)F)cc(NCc3cccs3)n2)cc1 [Example 174]
≤ 500 nM | CS(=O)(=O)c1ccc(-c2cc(C(F)(F)F)cc(NCC3CCOCC3)n2)cc1 [Example 175]
≤ 500 nM | Cc1ccc(Nc2cc(C(F)(F)F)cc(-c3ccc(S(C)(=O)=O)cc3)n2)c(C)n1 [Example 178]
≤ 500 nM | Cc1cccc(CNc2cc(C(F)(F)F)cc(-c3ccc(S(C)(=O)=O)cc3)n2)n1 [Example 180]
≤ 500 nM | Cc1ccc(Oc2cc(C(F)(F)F)cc(-c3ccc(S(C)(=O)=O)cc3)n2)c(C)n1 [Example 183]
≤ 500 nM | Cc1cccc(COc2cc(C(F)(F)F)cc(-c3ccc(S(C)(=O)=O)cc3)n2)n1 [Example 184]
≤ 500 nM | Cc1ncccc1COc1cc(C(F)(F)F)cc(-c2ccc(S(C)(=O)=O)cc2)n1 [Example 185]
≤ 500 nM | Cc1ccc(COc2cc(C(F)(F)F)cc(-c3ccc(S(C)(=O)=O)cc3)n2)cn1 [Example 186]
≤ 500 nM | Cc1nn(C)cc1CNc1cc(C(F)(F)F)cc(-c2ccc(S(C)(=O)=O)cc2)n1 [Example 187]
≤ 500 nM | Cc1c(CNc2cc(C(F)(F)F)cc(-c3ccc(S(C)(=O)=O)cc3)n2)cnn1C [Example 188]
≤ 500 nM | Cc1csc(CNc2cc(C(F)(F)F)cc(-c3ccc(S(C)(=O)=O)cc3)n2)n1 [Example 189]
≤ 500 nM | CS(=O)(=O)c1ccc(-c2cc(C(F)(F)F)cc(Oc3cncc(Cl)c3)n2)cc1 [Example 190]
≤ 500 nM | CS(=O)(=O)c1ccc(-c2cc(C(F)(F)F)cc(Nc3ccc(Cl)nn3)n2)cc1 [Example 191]
≤ 500 nM | CCN(Cc1ccccc1)c1cc(C(F)(F)F)cc(-c2ccc(S(C)(=O)=O)cc2)n1 [Example 193]
≤ 500 nM | CCOC(=O)c1c(CC)cc(-c2ccc(S(C)(=O)=O)cc2)nc1NCc1ccccc1 [Example 197]
≤ 500 nM | CS(=O)(=O)c1ccc(-c2cc(C(F)(F)F)cc(OCc3ccc(Br)cn3)n2)cc1 [Example 200]
≤ 500 nM | CS(=O)(=O)c1ccc(-c2cc(C(F)(F)F)cc(OCc3ccncc3Br)n2)cc1 [Example 201]
≤ 500 nM | Cc1cc(NCc2conc2C)nc(-c2ccc(S(C)(=O)=O)cc2)c1 [Example 202]
≤ 500 nM | CCc1cc(NCc2nccn2CC)nc(-c2ccc(S(C)(=O)=O)cc2)c1 [Example 204]
≤ 500 nM | Cc1cc(-c2ccc(S(C)(=O)=O)cc2)nc(N(C)Cc2nccn2C)c1C#N [Example 205]
≤ 500 nM | CS(=O)(=O)c1ccc(-c2cc(C(F)(F)F)cc(N[C@H]3CC[C@@H](C)CC3)n2)cc1 [Example 206]
≤ 500 nM | CS(=O)(=O)c1ccc(-c2cc(C(F)(F)F)cc(N[C@H]3CC[C@H](C)CC3)n2)cc1 [Example 207]

IC50 | SMILES
≤ 500 nM | CS(=O)(=O)c1ccc(-c2cc(C(F)(F)F)cc(NCc3ccccn3)n2)cc1 [Example 208]
≤ 500 nM | CS(=O)(=O)c1ccc(-c2cc(C(F)(F)F)cc(NC3CCCCCC3)n2)cc1 [Example 209]
≤ 500 nM | Cc1cc(-c2ccc(S(C)(=O)=O)cc2)nc(NCc2ccccn2)c1C#N [Example 210]
≤ 500 nM | CCC(CC)Nc1cc(C(F)(F)F)cc(-c2ccc(S(C)(=O)=O)cc2)n1 [Example 211]
≤ 500 nM | CS(=O)(=O)c1ccc(-c2cc(C(F)(F)F)cc(NC3CCC3)n2)cc1 [Example 212]
≤ 500 nM | Cc1noc(CNc2cc(C(F)(F)F)cc(-c3ccc(S(C)(=O)=O)cc3)n2)n1 [Example 213]
≤ 500 nM | Cc1nc(CNc2cc(C(F)(F)F)cc(-c3ccc(S(C)(=O)=O)cc3)n2)no1 [Example 214]
≤ 500 nM | CCc1cc(-c2ccc(S(C)(=O)=O)cc2)nc(OCc2ccccn2)c1C#N [Example 217]
≤ 500 nM | Cc1cc(NCc2ccnn2C)nc(-c2ccc(S(C)(=O)=O)cc2)c1 [Example 218]
≤ 500 nM | CS(=O)(=O)c1ccc(-c2cc(C(F)(F)F)cc(NCC3CCCC3)n2)cc1 [Example 219, N-(cyclopentanemethyl)-4-(trifluoromethyl)-6-[4-(methylsulfonyl)phenyl]pyridine-2-amine]
≤ 500 nM | CCc1cc(-c2ccc(S(C)(=O)=O)cc2)nc(OCc2ccccn2)c1Cl [Example 220]
≤ 500 nM | CCO[C@H]1CC[C@H](Nc2cc(C(F)(F)F)cc(-c3ccc(S(C)(=O)=O)cc3)n2)CC1 [Example 221]
≤ 500 nM | CCc1cc(-c2ccc(S(C)(=O)=O)cc2)nc(NCc2ccccn2)c1C#N [Example 222, 4-Ethyl-6-[4-(methylsulfonyl)phenyl]-2-[(2-pyridinylmethyl)amino]-3-pyridinecarbonitrile]
≤ 500 nM | CCc1cc(-c2ccc(S(C)(=O)=O)cc2)nc(NCc2ccc(C)cn2)c1C#N [Example 223]
≤ 500 nM | CCc1cc(-c2ccc(S(C)(=O)=O)cc2)nc(NCc2cnn(C)c2)c1C#N [Example 228]
≤ 500 nM | CCc1cc(-c2ccc(S(C)(=O)=O)cc2)nc(NCc2nc(C)cs2)c1C#N [Example 229]
≤ 500 nM | CCc1cc(-c2ccc(S(C)(=O)=O)cc2)nc(NCC2CCCCC2)c1C#N [Example 231]
≤ 500 nM | CCc1cc(NCc2ncnn2CC)nc(-c2ccc(S(C)(=O)=O)cc2)c1 [Example 232]
≤ 500 nM | CCc1cc(NCc2ncnn2C)nc(-c2ccc(S(C)(=O)=O)cc2)c1 [Example 233]
≤ 500 nM | CCn1ncnc1CNc1cc(C)cc(-c2ccc(S(C)(=O)=O)cc2)n1 [Example 234, N-[(1-ethyl-1H-1,2,4-triazol-5-yl)methyl]-4-methyl-6-[4-(methylsulfonyl)phenyl]pyridine-2-amine]
≤ 500 nM | CCn1ncnc1CNc1cc(C(F)(F)F)cc(-c2ccc(S(C)(=O)=O)cc2)n1 [Example 235]
≤ 500 nM | CCc1cc(-c2ccc(S(C)(=O)=O)cc2)nc(OCc2ccc(C)nc2)c1C#N [Example 236, 4-Ethyl-2-{[(6-methyl-3-pyridinyl)methyl]oxy}-6-[4-(methylsulfonyl)phenyl]-3-pyridinecarbonitrile]

SMILES | IC50
Cc1ccc(CNc2nc(-c3ccc(S(C)(=O)=O)cc3)cc(C)c2C#N)cn1 [Example 192] | ≤ 500 nM
CCc1cc(-c2ccc(S(C)(=O)=O)cc2)nc(NCc2ccc(C)nc2)c1C#N [Example 224] | ≤ 500 nM
